The values that follow are results of earlier work, collected in patent US20080168569A1, “Non-invasive methods and related compositions for identifying compounds that modify in vivo aggregations of disease-related polypeptides” (priority 2004, published 2008).

In the data set the test system is truncated DRPLA proteins that contain an expanded-polyglutamine domain. Conditions: in vitro; transglutaminase inhibitors.

Regarding `NCCSSCCN` [cystamine], the “formation of cellular aggregates of truncated DRPLA proteins” value is “inhibit the formation of cellular aggregates”. As to `CN(C)c1cccc2c(S(=O)(=O)NCCCCCN)cccc12` [monodansyl cadaverine], the “formation of cellular aggregates of truncated DRPLA proteins” value is given as “inhibit the formation of cellular aggregates”.
